Test systems include 786-0; A498; CCRF-CEM; HCT-15; HOP-92; K562; KM12; MDA-N; MOLT-4; NCI-H23; NCI-H460; NCI/ADR-RES; OVCAR-8; RXF 393; SF-295; SF-539; SK-OV-3; SN12C; SR; TK-10.
Common to all, as to test: NCI anticancer screen, dose series, 48 h

Experimental findings from ChEMBL document CHEMBL1201862, “PubChem BioAssay data set” (2004) are described below.

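Grown in 96-well plates, cells were treated for 48 hours with each compound at five concentrations. Insufficient inhibition: endpoint recorded as highest concentration tested. GI50 marks 50% less growth.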 Activity calls are given as the source filed them. No stated cut-off is given here; in the data, active = GI50 up to about 1.1 µM and inactive = higher.

With `Cc1cc(S(=O)(=O)Nc2nnc3cnc4ccccc4n23)c(S)cc1Cl`, the GI50 was > 100 µM (inactive) in the assay on 786-0; > 100 µM (inactive) in the assay with A498; > 100 µM (inactive) with CCRF-CEM; over 100 µM with HCT-15; 11.1 µM (inactive) with HOP-92; > 100 µM (inactive) with K562. Further, the GI50 is > 83.6 µM (inactive) with KM12; > 100 µM (inactive) with MDA-N; > 100 µM (inactive) with MOLT-4; > 100 µM (inactive) with NCI-H23; 51.5 µM (inactive) with NCI-H460; > 100 µM (inactive) in the assay with NCI/ADR-RES. For the same compound, the GI50 is > 52.1 µM (inactive) with OVCAR-8; > 100 µM (inactive) with RXF 393; > 100 µM (inactive) in the assay on SF-295; > 100 µM (inactive) in the assay on SF-539; > 100 µM (inactive) with SK-OV-3; > 100 µM (inactive) in the assay with SN12C. For the same compound, the GI50 with SR and in the assay with TK-10 was > 100 µM (inactive) each time.
As to `COC(=O)c1sc(=S)sc1SCc1cccc(CSc2sc(=S)sc2C(=O)OC)c1`, the GI50 is 33.4 µM (inactive) with 786-0; 24.8 µM (inactive) in the assay with A498; > 100 µM (inactive) with CCRF-CEM; over 100 µM in the assay on HCT-15; 29.4 µM (inactive) with HOP-92; 79.8 µM (inactive) in the assay with K562. Besides, the GI50 in the assay with KM12 is > 100 µM (inactive); in the assay with MDA-N it was > 100 µM (inactive); in the assay on MOLT-4, > 100 µM (inactive); in the assay with NCI-H23, 27.9 µM (inactive); with NCI-H460, > 100 µM (inactive); in the assay with NCI/ADR-RES, > 100 µM (inactive). Besides, the GI50 in the assay on OVCAR-8 was > 100 µM (inactive); in the assay on RXF 393, 16.2 µM (inactive); with SF-295, 26 µM (inactive); with SF-539 it was 24.6 µM (inactive); in the assay on SK-OV-3 it was 19.6 µM (inactive); with SN12C, > 100 µM (inactive). Further, the GI50 in the assay with SR was > 100 µM (inactive); in the assay with TK-10, 29.4 µM (inactive).
With `O=C1c2cccc(NCCNCCO)c2C(=O)c2cccc(NCCNCCO)c21`, the GI50 in the assay with 786-0 is 0.665 µM (active); with A498 it was 2.48 µM (inactive); in the assay with CCRF-CEM, 0.267 µM (active); in the assay on HCT-15, 5.28 µM; in the assay on HOP-92, 0.507 µM (active); in the assay on K562, 1.12 µM (active). Besides, the GI50 with KM12 is 0.792 µM (active); in the assay on MDA-N, 0.215 µM (active); in the assay with MOLT-4, 0.443 µM (active); in the assay with NCI-H23, 1.87 µM (inactive); in the assay on NCI-H460 it was 1.55 µM (inactive); with NCI/ADR-RES, 10.9 µM (inactive). The GI50 was 0.989 µM (active) with OVCAR-8; 1.59 µM (inactive) with RXF 393; 1.79 µM (inactive) in the assay on SF-295; 0.601 µM (active) in the assay with SF-539; 2.26 µM (inactive) in the assay on SK-OV-3; 0.782 µM (active) with SN12C. Further, the figures for the GI50 with SR and in the assay with TK-10 were 0.519 µM (active) and 3.73 µM (inactive), respectively.
As for `S=C1NC(c2ccccc2)NC(c2ccccc2)S1` (stereo not given), the GI50 in the assay with 786-0 was > 100 µM (inactive); with A498, > 100 µM (inactive); in the assay on CCRF-CEM, 2.2 µM (inactive); in the assay with HCT-15, 51.1 µM; with HOP-92, > 100 µM (inactive); in the assay with K562, 42.2 µM (inactive). The GI50 in the assay with KM12 is > 100 µM (inactive); in the assay on MDA-N, > 100 µM (inactive); in the assay on MOLT-4, > 100 µM (inactive); in the assay with NCI-H23, > 100 µM (inactive); in the assay with NCI-H460, 21.4 µM (inactive); in the assay on NCI/ADR-RES it was > 100 µM (inactive). For the same compound, the GI50 in the assay on OVCAR-8, in the assay on RXF 393, in the assay on SF-295, in the assay with SF-539, in the assay on SK-OV-3 and in the assay on SN12C was > 100 µM (inactive) each time. Moreover, the GI50 with SR and in the assay with TK-10 was > 100 µM (inactive) each time.
`Cc1ccc(NC(=S)N/N=C(/c2ccccc2)c2ccccn2)cc1`: the GI50 in the assay with 786-0 was 0.0284 µM (active); with A498 it was 0.815 µM (active); in the assay on CCRF-CEM, 0.0109 µM (active); with HCT-15, under 0.019 µM; in the assay on HOP-92, 0.278 µM (active); in the assay with K562 it was < 0.0117 µM (active). For the same compound, the GI50 in the assay with KM12 was 0.1 µM (active); with MDA-N it was 0.708 µM (active); in the assay on MOLT-4 it was < 0.0118 µM (active); in the assay on NCI-H23, < 0.0187 µM (active); in the assay with NCI-H460, 0.117 µM (active); in the assay on NCI/ADR-RES, 0.0302 µM (active). Also, the GI50 in the assay with OVCAR-8 was 0.0569 µM (active); with RXF 393, 0.621 µM (active); in the assay with SF-295, 0.212 µM (active); with SF-539, 0.729 µM (active); in the assay with SK-OV-3, 0.0308 µM (active); in the assay on SN12C, 0.121 µM (active). Further, the GI50 in the assay on SR is < 0.01 µM (active); in the assay on TK-10, 0.0631 µM (active).
Consider `O=C1c2c(F)c(F)c(F)c(F)c2SC2=Nc3cccc4cccc(c34)N12`, for which the GI50 in the assay on 786-0 was 5.51 µM (inactive); in the assay with A498 it was 18.5 µM (inactive); in the assay on CCRF-CEM it was 3.31 µM (inactive); in the assay with HCT-15, 4.92 µM; in the assay with HOP-92 it was 2.37 µM (inactive); in the assay on K562, 2.02 µM (inactive). Further, the GI50 is 3.05 µM (inactive) in the assay with KM12; 5.05 µM (inactive) with MDA-N; 2.16 µM (inactive) with MOLT-4; 3.88 µM (inactive) with NCI-H23; 10 µM (inactive) in the assay with NCI-H460; 2.77 µM (inactive) with NCI/ADR-RES. For the same compound, the GI50 was 5.41 µM (inactive) in the assay on OVCAR-8; 4.1 µM (inactive) in the assay on RXF 393; 14.5 µM (inactive) with SF-295; 6.18 µM (inactive) in the assay with SF-539; 4.14 µM (inactive) in the assay with SK-OV-3; 3.79 µM (inactive) in the assay on SN12C. For the same compound, the GI50 with SR is 2.13 µM (inactive); with TK-10, 13.3 µM (inactive).
For the compound `C1=C(c2ccccc2)C(N2CCOCC2)Oc2ccccc21` (stereo not given), the GI50 with 786-0 is > 100 µM (inactive); with A498 it was 25.5 µM (inactive); with CCRF-CEM, > 100 µM (inactive); in the assay with HCT-15, over 100 µM; in the assay with HOP-92, > 100 µM (inactive); with K562, 91.8 µM (inactive). For the same compound, the GI50 in the assay on KM12 was > 100 µM (inactive); in the assay with MDA-N it was 92.5 µM (inactive); with MOLT-4, 81.7 µM (inactive); with NCI-H23, > 100 µM (inactive); in the assay with NCI-H460, > 100 µM (inactive); in the assay with NCI/ADR-RES, 79.8 µM (inactive). In addition, the GI50 in the assay with OVCAR-8, with RXF 393, with SF-295, in the assay on SF-539, in the assay on SK-OV-3 and with SN12C was > 100 µM (inactive) throughout. Besides, the GI50 in the assay with SR and with TK-10 was > 100 µM (inactive) in each case.
On to `CC1=C(C#N)C23C(=O)c4ccccc4C(=O)C2=C(O)C=CC3(O)N1` (stereo not given), for which the GI50 is 2.2 µM (inactive) in the assay with 786-0; 21 µM (inactive) with A498; 0.365 µM (active) with CCRF-CEM; 2.44 µM with HCT-15; 2.12 µM (inactive) in the assay on HOP-92; 1.15 µM (inactive) in the assay on K562. The GI50 was 9.08 µM (inactive) in the assay with KM12; 1.53 µM (inactive) in the assay with MDA-N; 0.484 µM (active) in the assay on MOLT-4; 3.84 µM (inactive) with NCI-H23; 5.46 µM (inactive) in the assay on NCI-H460; 7.83 µM (inactive) in the assay with NCI/ADR-RES. Also, the GI50 with OVCAR-8 was 5.09 µM (inactive); with RXF 393, 3.8 µM (inactive); in the assay on SF-295, 13.6 µM (inactive); in the assay on SF-539, 2.86 µM (inactive); in the assay on SK-OV-3, 52 µM (inactive); with SN12C, 2.24 µM (inactive). For the same compound, the GI50 was 0.269 µM (active) in the assay on SR and 14.3 µM (inactive) with TK-10.
Consider `O=C1C=CC(=O)c2ncccc21`, for which the GI50 with 786-0 was 2.71 µM (inactive); with A498 it was 13.8 µM (inactive); with CCRF-CEM, 0.787 µM (active); with HCT-15 it was 2.08 µM; with HOP-92, 1.63 µM (inactive); in the assay on K562, 2.32 µM (inactive). The GI50 is 12.1 µM (inactive) in the assay on KM12; 4.56 µM (inactive) in the assay on MDA-N; 2.36 µM (inactive) in the assay on MOLT-4; 10.3 µM (inactive) in the assay with NCI-H23; 3.98 µM (inactive) in the assay on NCI-H460; 11.3 µM (inactive) in the assay with NCI/ADR-RES. Besides, the GI50 with OVCAR-8 was 9.04 µM (inactive); with RXF 393, 6.01 µM (inactive); in the assay with SF-295, 7.6 µM (inactive); in the assay with SF-539 it was 7.98 µM (inactive); in the assay on SK-OV-3, 12.2 µM (inactive); in the assay on SN12C, 5.14 µM (inactive). Moreover, the GI50 is 0.597 µM (active) with SR and 6.28 µM (inactive) in the assay with TK-10.
`Cc1cccc(-c2cc(O)c3ccc(C)nc3n2)c1`: the GI50 with 786-0 was 0.43 µM (active); in the assay with A498, 0.644 µM (active); with CCRF-CEM it was 0.354 µM (active); with HCT-15, 0.194 µM; with HOP-92 it was 1.14 µM (inactive); in the assay with K562, 0.0993 µM (active). Moreover, the GI50 in the assay with KM12 is 0.12 µM (active); with MDA-N, 0.0283 µM (active); in the assay with MOLT-4, 0.421 µM (active); in the assay on NCI-H23, 0.643 µM (active); with NCI-H460, 0.334 µM (active); in the assay with NCI/ADR-RES, 0.141 µM (active). Further, the GI50 in the assay on OVCAR-8 was 0.8 µM (active); with RXF 393, 0.456 µM (active); in the assay with SF-295 it was 0.278 µM (active); in the assay with SF-539, 0.338 µM (active); in the assay on SK-OV-3, 0.656 µM (active); with SN12C it was 0.668 µM (active). Also, the GI50 is 0.0491 µM (active) in the assay with SR and 3.3 µM (inactive) in the assay with TK-10.
